The values that follow are results of earlier work, collected in patent EP3335699A1, “SELEXIPAG FORMULATION IN LIQUISOLID SYSTEM” (H e x a l Aktiengesellschaft, priority 2016, dated 2018).

Molecules are shown by their SMILES.

For the series the following is noted: low solubility and low permeability; b10 refers to crystalline forms.

Regarding `CC(C)N(CCCCOCC(=O)NS(C)(=O)=O)c1cnc(-c2ccccc2)c(-c2ccccc2)n1` [selexipag], the “BCS (Biopharmaceutics Classification System) class” value is recorded as “class IV”.
